Experimental data from patent publication US12268669B2, “Pharmaceutical compositions and methods comprising a combination of a benzoxazole transthyretin stabilizer and an additional therapeutic agent” (Pfizer Inc., priority 2018, dated 2025).

Tests used:
[1] = tested on: amyloidogenic light chains; settings: cited from earlier work
[2] = tested on: TTR tetramers (WT or V122I); experiment: WT and V122I TTR fibril formation inhibition assay (turbidity at 350 nm, acidic conditions, 72 h); format: biochemical; settings: WT or V122I TTR 3.6 μM; compound 3.6 and 7.2 μM; pH 4.4 or 4.5; 72 h (values only in FIG. 1 and 2)
Method: Inhibition of WT and V122I TTR fibril formation under acidic conditions after 72 h-a sufficient period for aggregation to go to completion in the vehicle control (See Hurshman, A. R., White, J. T., Powers, E. T., Kelly, J. W.; Transthyretin aggregation under partially denaturing conditions is a downhill polymerization. Biochemistry 2004, 43, 7365-7381). Purified TTR tetramers (WT or V122I at 3.6 μM) were mixed with DMSO (vehicle control), Fx-1005 (positive control, See Razavi H, et al. Benzoxazoles as transthyretin amyloid fibril inhibitors: synthesis, evaluation, and mechanism of action. Angew Chem Int Ed Engl 2003, 42, 2758-2761), Fx-1003 (positive control) or PTC124 at final concentrations of 3.6 and 7.2 μM, and incubated for 30 minutes at 25° C. After adjusting the pH to 4.4 or 4.5, samples were incubated at 37° C. for 72 h. The turbidity was then measured at 350 nm using a UV-vis spectrometer. All endpoint amyloid fibril formation yields (which are slightly different for WT and V122I) were normalized for each allele to amyloidogenesis in the absence of stabilizer, assigned to be 100% fibril formation. Therefore, 5% fibril formation corresponds to a compound inhibiting 95% of TTR fibril formation after 72 h (See Miroy, G. J., et al. Inhibiting transthyretin amyloid fibril formation via protein stabilization. Proc Natl Acad Sci USA 1996, 93, 15051-15056). […]

For O=C(O[C@@H]1Cc2c(O)cc(O)cc2O[C@@H]1c1cc(O)c(O)c(O)c1)c1cc(O)c(O)c(O)c1, the “prevention of fibril formation” value ([1]; amyloidogenic light chains) is given as “prevent fibril formation” and the “binding to amyloidogenic light chains” value [1] is given as “bind to amyloidogenic light chains”.
In the case of O=C(O)c1cccc(-c2noc(-c3ccccc3F)n2)c1 [Ataluren, 3-[5-(2-fluorophenyl)-1,2,4-oxadiazol-3-yl]benzoic acid], the “inhibition of TTR fibril formation” value [2] is reported as “inhibit TTR fibril formation”.
